Source: ChEMBL document CHEMBL4610062, “Cytotoxic and non-cytotoxic cardiac glycosides isolated from the combined flowers, leaves, and twigs of Streblus asper” (Bioorg Med Chem, 2020)

What was measured:
HT-29 = experiment: Cytotoxicity against human HT-29 cells assessed as inhibition of cell viability incubated for 72 hrs by MTS assay; format: functional, cell-based; details: HT-29, 72 h
OVCAR-3 = experiment: Cytotoxicity against human OVCAR3 cells assessed as inhibition of cell viability incubated for 72 hrs by MTS assay; format: functional, cell-based; details: OVCAR-3, 72 h
[1] = Inhibition of Sodium/potassium-transporting ATPase in porcine cerebral cortex using ATP as substrate incubated for 15 mins by ADP-Glo Max Assay; set-up: species or system Sus scrofa
[2] = Cytotoxicity against human MDA-MB-435 cells assessed as inhibition of cell viability incubated for 72 hrs by MTS assay

Structure (SMILES): CO[C@H]1[C@H](O[C@H]2CC[C@]3(C=O)[C@H]4CC[C@]5(C)[C@](O)(C6=CC(=O)OC6)CC[C@]5(O)[C@@H]4CC[C@]3(O)C2)O[C@H](C)[C@H](O)[C@@H]1OC
- IC50 (HT-29): > 20 µM
- IC50 (OVCAR-3): > 20 µM
- IC50 [1]: 232 µM
- IC50 [2]: > 20 µM

Structure (SMILES): CC(=O)O[C@H]1C(=O)[C@@]2(C)[C@H]([C@H](OC(=O)c3ccccc3)[C@]3(O)C[C@H](OC(=O)[C@H](O)[C@@H](NC(=O)c4ccccc4)c4ccccc4)C(C)=C1C3(C)C)[C@]1(OC(C)=O)CO[C@@H]1C[C@@H]2O [PACLITAXEL]
- IC50 [2]: 0.0015 µM

Structure (SMILES): C[C@H]1O[C@@H](O[C@H]2[C@@H](O)C[C@H](O[C@H]3[C@@H](O)C[C@H](O[C@H]4CC[C@@]5(C)[C@H](CC[C@@H]6[C@@H]5CC[C@]5(C)[C@@H](C7=CC(=O)OC7)CC[C@]65O)C4)O[C@@H]3C)O[C@@H]2C)C[C@H](O)[C@@H]1O [DIGITOXIN]
- IC50 [1]: 0.127 µM

Structure (SMILES): CO[C@H]1[C@H](O[C@H]2CC[C@]3(C=O)[C@H]4CC[C@]5(C)[C@@H]6CC[C@]5(O[C@H]5OC(=O)C[C@H]56)[C@@H]4CC[C@]3(O)C2)O[C@H](C)[C@H](O)[C@@H]1OC
- IC50 (HT-29): > 20 µM
- IC50 (OVCAR-3): > 20 µM
- IC50 [2]: > 20 µM
